Assay results from PubChem BioAssay AID179 (DTP/NCI, 2004).
The source made the active and inactive calls.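 The calls were made as follows: active = compounds giving half or more protection of infected cells from virus-caused growth loss, again on retest; inactive = the rest.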 Where a SMILES comes first, the peptide text is derived from it.

System: CEM cells HIV-1 protection, formazan growth assay
Assay: NCI AIDS Antiviral Assay
Conditions: for IC50: measured here: growth of uninfected CEM cells
Summary of the method: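 Soluble formazan readout of cell growth; CEM cells ± HIV-1; 5 drug concs. ≥50% protection → retest; ≥50% again = moderately active; reproducible 100% = confirmed active.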

Compound | EC50 [µM] | IC50 [µM] | outcome
Cc1nc(N)c(N2CCN(S(N)(=O)=O)CC2)c(=O)[nH]1 | > 200 | > 200 | –
C[C@]12CC(C#N)C(=O)C(O)=C1CC[C@@H]1C2CC[C@@]2(C)C1CC[C@@H]2O (stereo partly drawn) | – | – | inactive
Cc1ncc(COP(=O)(O)O)c(/C=C2\SC(=S)NC2=O)c1O | > 200 | > 200 | –
O=[N+]([O-])c1cccc(N=Cc2ccc(O)cc2)c1 | > 200 | 182 | –
O=C(Cn1c(-c2ccccc2)cc2ccccc21)N1CCOCC1 | > 200 | > 200 | –
O=C(c1ccccc1)c1ccc(OCCOc2ccc(Nc3ccccc3)cc2)cc1 | > 6.61 | > 6.61 | –
CCCCCCCCCCCCCCCCCCC1=C(O)C(=O)C=C(OC)C1=O | > 200 | 49 | –
CCC(=O)CCCC=C(c1cc(Cl)c(OC)c(C(=O)CC)c1)c1cc(Cl)c(OC)c(C(=O)CC)c1 | > 200 | 6.31 | –
COC1/C=C/OC2(C)Oc3c(C)c(O)c4c(O)c(c(/C=N/N5C(C)CN(Cc6ccc(O)cc6)CC5C)c(O)c4c3C2=O)NC(=O)C(C)=C/C=C/C(C)C(O)C(C)C(O)C(C)C(OC(C)=O)C1C (stereo not drawn) | > 200 | 7.94 | –
CO[C@H]1/C=C/O[C@@]2(C)Oc3c(C)c(O)c4c(O)c(c(/C=N/N5C(C)CN(Cc6ccccc6)CC5C)c(O)c4c3C2=O)NC(=O)/C(C)=C\C=C\[C@H](C)[C@H](O)[C@@H](C)[C@@H](O)[C@@H](C)[C@H](OC(C)=O)[C@@H]1C (stereo partly drawn) | > 200 | 9.77 | –
O=c1oc2ccccc2c(O)c1C(c1ccc(Cl)cc1)c1c(O)c2ccccc2oc1=O | > 200 | 26.3 | –
CC(C)CC(N)C(=O)NC(CC(=O)O)C(=O)NC(CCCCN)C(=O)NC(C)C(=O)NC(CO)C(=O)NC(Cc1ccc(O)cc1)C(=O)NC(CO)C(=O)NC(C(=O)NC(CC(N)=O)C(=O)NC(Cc1cnc[nH]1)C(=O)O)C(C)O (stereo not drawn) (H-LDKASYSTNH-OH; configuration not given here) | > 21.9 | > 21.9 | –
c1ccc(Nc2nnnn2-c2ccccc2)cc1 | > 200 | > 200 | –
COc1ccc(/C=C2/C[N+](C)(C)C/C(=C/c3ccc(OC)cc3)C2=O)cc1 | > 513 | 36.3 | –
COc1ccc(C(Cc2ccccc2)C2NC(=S)NC2=O)cc1 (stereo not drawn) | > 200 | 58.9 | –
O=C1C2[C@@H](C(=O)N1c1ccc(Br)cc1)C13C(=CC2([N+](=O)[O-])[C@@H]2C(=O)N(c4ccc(Br)cc4)C(=O)[C@@H]21)c1ccccc1N3c1ccccc1 (stereo partly drawn) | > 6.76 | > 6.76 | –
C=C1C(=O)C[C@@]23CCC[C@@]12CC(O)C3 (stereo partly drawn) | – | – | inactive
O=C(NC/C=C/Br)Nc1cnc2ccccc2c1 | > 200 | 151 | –
CCCCC(C=O)(C=C=C(C)C)CC (stereo not drawn) | > 339 | 34.7 | –
c1cc[c]([Sn]([O]c2cccc3cccnc23)([O]c2cccc3cccnc23)[c]2ccccc2)cc1 | – | – | inactive

Compound | EC50 [µM] | IC50 [µM] | outcome
COc1ccc2c(c1)CCN1CCc3cc(OC)c(OC)cc3CC21 (stereo not drawn) | > 200 | 61.7 | –
C#CCOc1cc2c(c3oc(=O)cc(CCC)c13)[C@@H](O)[C@H](C)[C@@H](C)O2 | > 200 | > 200 | –
C=CC1(C)C=C2C(O)CC3C(C)(C(=O)OC)CCCC3(C)C2CC1 (stereo not drawn) | > 21.9 | 11 | –
O=[N+]([O-])/C(C(Cl)=C(Cl)Cl)=C(/Br)SCc1ccccc1 | > 20 | 0.575 | –
C=C1c2c(Cl)ccc(O)c2C(O)=C2C(=O)C3(O)C(O)=C(C(N)=O)C(=O)C(N(C)C)C3C(O)C12 (stereo not drawn) | > 200 | 11 | –
COC(=O)CC(CNC(=O)OCc1ccccc1)OCc1ccc(OC)cc1 (stereo not drawn) | > 200 | > 200 | –
COc1ccc(/C(CC2OC(=O)c3ccccc32)=N\NC(N)=O)cc1 (stereo not drawn) | > 339 | > 339 | –
CC(O)C1(CNc2cc(Cl)nc(N)n2)CCCC1 (stereo not drawn) | > 200 | 74.1 | –
CC1C(=O)OC2CCC3(C)C(=O)OC4OC5(c6ccoc6)CC1(O)C2(C)C43O5 (stereo not drawn) | > 200 | > 200 | –
Cc1cc2c(cc1Cl)SC(NNC1=NCCN1)=NS2(=O)=O | > 200 | 115 | –
Oc1cccc2ccc(SSc3ccc4cccc(O)c4n3)nc12 | > 200 | 20.4 | –
Cc1nn(C)c2c1NC(=O)CS2 | – | – | inactive
COc1cc(/C=C2\C(=O)N(c3ccc(NC(C)=O)cc3)C(c3ccccc3)S2(=O)=O)cc(OC)c1OC (stereo not drawn) | > 200 | 87.1 | –
O=C1C=C(CCC2=CC(=O)c3ccccc3C2=O)C(=O)c2ccccc21 | > 200 | 91.2 | –
OCC(O)CC[CH2][Sn]([c]1ccccc1)([c]1ccccc1)[c]1ccccc1 (stereo not drawn) | – | – | inactive
CC1=C(C(=O)Nc2ccc([N+](=O)[O-])cc2)C(c2ccccc2F)C(C(=O)Nc2ccc([N+](=O)[O-])cc2)=C(C)N1 | > 13.5 | > 13.5 | –
CC1(C)OCC2OC(n3cnc4c(N)nc(Cl)nc43)C(OS(C)(=O)=O)C2O1 (stereo not drawn) | > 11.2 | 7.59 | –
CC(C)Oc1nc(N2CCNCC2)nc2c1CCC2 | > 200 | 39.8 | –
CCCCCCCCCC=C(c1cc(Br)cc(C(=O)O)c1O)c1cc(Br)cc(C(=O)O)c1O | > 22.9 | > 22.9 | –
CCCCCC12OCC(C)(C)N1O2 (stereo not drawn) | > 200 | 126 | –

Compound | EC50 [µM] | IC50 [µM] | outcome
COc1cccc2c(SCC(=O)Nc3ccccc3-c3ccccc3NC(=O)CSc3c4ccccc4nc4c(OC)cccc34)c3ccccc3nc12 | – | – | inactive
Nc1nc(Cl)nc(NCc2ccccc2)n1 | > 200 | > 200 | –
N#CC(C#N)=c1ccc(=C2N3CCCC3CN2C23CC4CC(CC(C4)C2)C3)cc1 (stereo not drawn) | – | – | inactive
COc1cnnc2c(C)c(-c3ccccc3)nn12 | > 200 | 46.8 | –
COc1ccccc1C1(c2c(OC)c(=O)c2=O)SCCCS1 | > 200 | > 200 | –
COc1cccc2c(N)c3cccc(C(=O)NCCN(C)C)c3nc12 | > 0.2 | 0.0331 | –
CC1(O)[C@@H]2O[C@@H]2C2(CCCO2)[C@@H]2O[C@@H]21 (stereo partly drawn) | > 200 | > 200 | –
Cc1[nH]c(=O)[nH]c1C(=O)c1ccc(-n2ccnc2)cc1 | > 14.1 | > 14.1 | –
O=C1OC(CN2CCOCC2)CN1/N=C/c1ccc([N+](=O)[O-])o1 (stereo not drawn) | > 200 | 41.7 | –
O=C(O)c1cc2cc([N+](=O)[O-])ccc2oc1=O | > 447 | > 447 | –
N#CI1OC(C(F)(F)F)(C(F)(F)F)c2ccccc21 | > 200 | 9.55 | –
Cc1ccc(-c2cn3c(nc4ccccc43)c(C)n2)cc1 | > 200 | 66.1 | –
CCOC(=O)C(=O)Nc1c(C(C)C)cccc1C(C)C | – | – | inactive
O=C1CCC(N2C(=O)C3C4c5ccccc5C(c5ccccc54)C3C2=O)C(=O)N1 (stereo not drawn) | > 200 | > 200 | –
CC(C)Sc1nncc(/C(N)=N/O)n1 | > 200 | > 200 | –
O=C1OCc2c1cc1ccc(O)c(OC3OC(CO)C(O)C(O)C3O)c1c2-c1ccc2c(c1)OCO2 (stereo not drawn) | > 501 | > 501 | –
C[N+](C)(C)CC(=O)N/N=C(/CC1OC(=O)c2ccccc21)c1ccccc1O (stereo not drawn) | > 120 | 77.6 | –
COc1ccc2c(c1)c(=O)c1c(NCCN(C)C)ccc3c(=O)n(CCN(C)C)c(=O)n2c31 | 0.0204 | 0.0324 | –
